# Test results reported in US10106589B2, “Compositions and methods for immunomodulation” (FUNDACIO INSTITUT D'INVESTIGACIO BIOMEDICA DE BELLVITGE …, priority 2011, dated 2018).
# What was measured:
# human Mo-DCs [1] = assay: Apoptosis determination (Annexin V / 7-ADD); assay type: cell-based; parameters: key: (−) negligible; (+) low; (++) moderate; (+++) high; details: viability; treated and LPS-induced DCs
# Excerpt: Double staining using with the fluorescent dyes Annexin V (Annexin V-PE Apoptosis Detection Kit I, BD Pharmigen, San Diego, Calif.) and 7-amino-actinomycin D (7-ADD) (BD Pharmigen), and flow cytometry analysis, was employed to assess the viability/apoptosis status of C4BP α7β1-, C4BP α7β0-, recC4BP α6β0-, or Factor H-treated and untreated Mo-DCs.
# LPS-matured human Mo-DCs = system: LPS-matured human Mo-DCs; parameters: key: (−) negligible; (+) low; (++) moderate; (+++) high; details: cytokine; Vit D3-treated and LPS-induced DCs; data from Naranjo-Gomez et al. (2011); cited from earlier work
# human Mo-DCs [2] = system: human Mo-DCs; parameters: key: (−) negligible; (+) low; (++) moderate; (+++) high; details: Vit D3-treated and LPS-induced DCs; data from Heitger (2011); cited from earlier work
# allogeneic CD3+ T cells = assay: Mixed leukocyte reaction ([3H]-thymidine incorporation); assay type: cell-based, human; parameters: key to Alloproliferation (T CD3^+): (−) negligible; (+) low; (++) moderate; (+++) high; details: functional assay; treated and LPS-induced DCs
# Experimental: CD3^+ T cells (10^5/well) and C4BP-treated (α7β1 and α7β0), or Factor H-treated, and LPS-activated Mo-DCs were seeded in a 96-well round-bottom plate at various DC:T cell ratios (1:40, 1:80 and 1:160) and cultured in X-VIVO 15 medium (Biowittaker, Walkersville, Md.) supplemented with 100 μg/ml of streptomycin, 100 IU/ml of penicillin and 2 mM L-glutamine (all from Invitrogen) plus 2% Human AB Serum. Allospecific proliferation was measured after 5 days of incubation. At day 4, the […] [^3H]-thymidine (1 μCi/well, Perkin Elmer, Boston, Mass.) was added, followed by incubation for another 16 h. Labeled cells were then harvested onto glass-fiber filters with a Filtermate Harvester (Packard, Meriden, Conn.), and the T cell proliferation rate was determined by the amount of [^3H]-thymidine incorporation, which was measured in a TopCount NXT counter (Packard). Results are reported as the mean cpm±SD of thymidine incorporation in quadruplicate culture wells.
# human Mo-DCs [3] = assay: Flow cytometry of cell surface markers on treated, LPS-matured Mo-DCs; assay type: cell-based; parameters: key to HLA-DR / CD40 / CD83 / CD86 / CD14 / CD1a / CCR7: (−) negligible; (+) low; (++) moderate; (+++) high; details: surface marker; treated and LPS-induced DCs
# Experimental: Peripheral blood mononuclear cells (PBMCs) were obtained from buffy coat preparations belonging to healthy donors from the Blood and Tissue Bank (Barcelona, Spain) after Ficoll-Paque™ density centrifugation (GE Healthcare Bio-Sciences AB; Uppsala, Sweden). Monocytes were purified by two different methods: 1) Cells were plated at 1×10^6 cells/ml in 60 mm culture plates (Corning, Spain) in RPMI without serum and allowed to adhere for 2 h at 37° C. in 5% CO2. The non-adherent cells were removed by washing in PBS. […] 2) Cells were purified using colloidal super-paramagnetic microbeads conjugated with monoclonal mouse anti-human CD14 antibodies (MACS, Miltenyi Biotec, Auburn, Calif., or EasySep® Positive Selection Cocktail, StemCell Technologies, Grenoble, France). The purity of CD14^+ cells was tested by CD14 staining and flow cytometry analysis (>90% CD14^+ cells). Monocyte-derived DCs (Mo-DCs) were generated supplementing the monocyte cultures with complete RPMI 1640 medium plus GM-CSF (800 UI/ml) and IL-4 (500 UI/ml) (both from Gentaur, Kampenhout, Belgium) at day 0 and day 3 of culture. For DC maturation, at day 5 iDCs were further stimulated for 48 h with 5 μg/ml LPS (Escherichia coli 055.B5, Sigma L2880, Copenhagen, Denmark).
# Cell surface phenotypes were analyzed using the following monoclonal antibodies: FITC-conjugated anti-HLA-DR (Immu-357), FITC-conjugated anti-CD83 (HB15a), FITC-conjugated anti-CD14 (RMO52), PE-conjugated anti-CD40 (MAB89), PE-conjugated anti-CD1a (BL6), PE-conjugated anti-CD80 (MAB104), PE-conjugated anti-CD86 (HA5.2B7) (all from Beckman-Coulter), Alexa Fluor 488-conjugated anti-CCR7 (TG8/CCR7, Biolegend, San Diego, Calif.), and the respective isotype controls from the same commercial sources. After washing with PBS, cells were subsequently stained with 3 μl MoAb/10^5 cells in 100 μl of FACS buffer (PBS containing 1% BSA and 0.1% sodium azide) for 20 min at room temp. Stained cells were analysed using a FACScalibur (Becton Dickinson). Mo-DCs were gated according to forward scatter (FSC) and side scatter (SSC) parameters. The results were analysed using CellQuestPro software (Becton Dickinson).
# Both the different C4BP isoforms (α7β1, α7β0 and α6β0), and Factor H were added at 2, 5 and 10 μg/ml throughout Mo-DC differentiation, maturation, or both. Namely, for the differentiation assays the proteins were added at day 0 and replenished at day 3. For the maturation assays the proteins were added at day 5, either alone or combined with LPS. Finally, for the differentiation plus maturation assays the proteins were added at days 0, 3 and 5 (at the last time point, combined with LPS).
compound,measurement,setting,value
"C=C1/C(=C\C=C2/CCC[C@]3(C)[C@@H]([C@H](C)CCCC(C)(C)O)CC[C@@H]23)C[C@@H](O)C[C@@H]1O [Vit D3, calcitriol, reference compound]",Apoptosis after treatment,human Mo-DCs [1],+
same,IL-10,LPS-matured human Mo-DCs,++ (*)
same,IL-12,LPS-matured human Mo-DCs,− (*)
same,IDO,human Mo-DCs [2],+++ (**)
same,Alloproliferation (T CD3^+),allogeneic CD3+ T cells,−
same,CCR7,human Mo-DCs [3],++
same,CD1a,human Mo-DCs [3],−
same,CD14,human Mo-DCs [3],+
same,CD40,human Mo-DCs [3],+
same,CD83,human Mo-DCs [3],+
same,CD86,human Mo-DCs [3],−
same,HLA-DR,human Mo-DCs [3],+
